Earlier results as cited in patent US20060014732A1, “Use of targeted oxidative therapeutic formulation in treatment of burns” (priority 2004, published 2006).

Assays:
[1] = tested on: peroxide-sensitive E. coli; conditions: infused into the blood
[2] = tested on: E. coli; conditions: increasing concentration of peroxide ex-vivo in rabbit or human blood
[3] = tested on: multiple-drug resistant strain of Staphylococcus aureus; conditions: growing culture of S. aureus, 8 hours, with or without illumination

Row | Compound | bactericidal effect [1] | direct bactericidal activity [2] | bactericidal effect in culture [3]
1 | OO [hydrogen peroxide, Hydrogen peroxide] | no bactericidal effect | no evidence of direct bactericidal activity | 
2 | hemin |  |  | moderately bactericidal but light independent
3 | CC1=C(CCC(=O)O)c2cc3nc(cc4[nH]c(cc4C)cc4[nH]c(cc1n2)cc4C)C(C)=C3CCC(=O)O [deuteroporphyrin] |  |  | strongly bactericidal only after photosensitization
